Results as given in article PMC8212425 (Translational Vision Science & Technology, 2021).
Read-outs that look alike come from different tables or passages of the source.

Legend:
[1] = assay type: in vivo, New Zealand White rabbits; conditions: for Plasma concentration / AUC(0-t): 1 mg/eye; for Plasma concentration: below LOQ; for Cmax / Tmax: New Zealand White, rabbit, 1 mg; for AUC(0-t): NZW rabbits
[2] = assay type: in vivo, Dutch Belted rabbits; conditions: for Cmax / Tmax: 4 mg; for AUC(0-t): DB rabbits, 91 days
[3] = assay type: in vivo, Dutch Belted rabbits; conditions: for Tmax / Cmax / half-life: Dutch Belted, rabbit, sc; for AUC(0-t): DB rabbits
[4] = assay type: in vivo, rabbits; conditions: rabbit, RCS, sc, 1.05 mg/eye
[5] = vitreous humor, topical or ocular
[6] = Dutch Belted, rabbit, RPE-choroid-sclera complex (RCS), sc
[7] = Dutch Belted, rabbit, vitreous humor, sc
[8] = SC, 4 mg/eye, throughout 91-day study, not detected/quantifiable, LOQ
[9] = RPE-choroid-sclera complex (RCS), 0.03 mg
[10] = RPE-choroid-sclera complex (RCS), 0.1 mg
[11] = SC, 0.03 and 0.10 mg/eye, 10-week study
[12] = SC, 0.03 and 0.1 mg/eye, any timepoint, not quantifiable, LOQ

With `CNC(=O)c1ccccc1Sc1ccc2c(/C=C/c3ccccn3)n[nH]c2c1` [Axitinib] as the molecule, how does the Plasma concentration ([1]; IVT, all timepoints) read?
Its Plasma concentration is less than 0.150 ng/mL.

What about the Cmax ([1]; posterior eye cup (PEC), sc) of the same molecule?
Its Cmax is 799000 ng/g.

What about the Tmax ([1]; posterior eye cup (PEC), sc) of the same molecule?
Its Tmax is 6 h.

And the Cmax ([1]; posterior eye cup (PEC), topical or ocular)?
The Cmax was 124000 ng/g.

And the Cmax ([1]; vitreous humor, sc)?
The Cmax was 3670 ng/g.

What about the Tmax ([1]; vitreous humor, sc) of the same molecule?
The Tmax was 168 h.

And the Cmax [1, 5]?
Its Cmax is 1.28e+06 ng/g.

And the Tmax [1, 5]?
The Tmax was 0.08 h.

And the “AUC(0-t)” value ([1]; PEC (posterior eye cup), SC injection)?
The value was 5208 µg·days/g.

What about the “AUC(0-t)” value ([1]; PEC, IVT injection) of the same molecule?
The value was 471 µg·days/g.

And the Plasma concentration ([1]; SC, all timepoints except 6 hours)?
The Plasma concentration was less than 0.150 ng/mL.

What about the “AUC(0-t)” value ([1]; vitreous humor, IVT injection) of the same molecule?
The value was 6208 µg·days/g.

And the “AUC(0-t)” value ([1]; vitreous humor, SC injection)?
The value was 19 µg·days/g.

What about the Cmax [2, 6] of the same molecule?
The Cmax was 2.2e+07 ng/g.

And the Tmax [2, 6]?
The Tmax was 96 h.

And the half-life ([2]; Dutch Belted, rabbit, RPE-choroid-sclera complex (RCS), sc, 4 mg/eye)?
The half-life was 143 days.

What about the Cmax ([2]; Dutch Belted, rabbit, retina, sc) of the same molecule?
The Cmax was 325000 ng/g.

And the concentration at 91 day ([2]; Dutch Belted, rabbit, retina, sc, 4 mg/eye)?
Its concentration at 91 day is 305000 ng/g.

What about the Cmax [2, 7] of the same molecule?
The Cmax was 858 ng/mL.

And the Tmax [2, 7]?
Its Tmax is 96 h.

What about the “AUC(0-t)” value ([2]; RCS (RPE-choroid-sclera, dose depot), SC, 4 mg/eye) of the same molecule?
The value was 1,260,000 µg·d/g.

What about the Aqueous humor concentration [2, 8] of the same molecule?
The Aqueous humor concentration was less than 1 ng/mL.

What about the Plasma concentration [2, 8] of the same molecule?
Its Plasma concentration is less than 0.15 ng/mL.

And the “Vitreous humor level lower than that of RCS and retina” value ([2]; SC, 4 mg/eye, density of vitreous humor assumed 1)?
Its value is 3 to 4 log orders.

What about the “AUC(0-t)” value ([2]; vitreous humor, SC, 4 mg/eye) of the same molecule?
Its value is 31.1 µg·d/g or µg*d/mL.

What about the Tmax ([3]; RPE-choroid-sclera complex (RCS)) of the same molecule?
The Tmax was 24 h.

What about the Cmax [3, 9] of the same molecule?
The Cmax was 37200 ng/g.

What about the Tmax [3, 9] of the same molecule?
The Tmax was 24 h.

And the half-life [3, 9]?
Its half-life is 264 h.

What about the Cmax [3, 10] of the same molecule?
Its Cmax is 232000 ng/g.

What about the Tmax [3, 10] of the same molecule?
Its Tmax is 24 h.

What about the half-life [3, 10] of the same molecule?
Its half-life is 384 h.

And the Cmax ([3]; retina, 0.03 mg)?
Its Cmax is 4480 ng/g.

What about the Tmax ([3]; retina, 0.03 mg) of the same molecule?
Its Tmax is 24 h.

And the Cmax ([3]; retina, 0.1 mg)?
The Cmax was 6260 ng/g.

And the Tmax ([3]; retina, 0.1 mg)?
The Tmax was 24 h.

What about the Cmax ([3]; vitreous humor, 0.03 mg) of the same molecule?
Its Cmax is 4.01 ng/mL.

And the Tmax ([3]; vitreous humor, 0.03 mg)?
Its Tmax is 24 h.

And the Cmax ([3]; vitreous humor, 0.1 mg)?
Its Cmax is 4.58 ng/mL.

And the Tmax ([3]; vitreous humor, 0.1 mg)?
Its Tmax is 24 h.

What about the “AUC(0-t)” value ([3]; RCS, SC, 0.03 mg/eye) of the same molecule?
Its value is 338 µg·days/g.

And the “AUC(0-t)” value ([3]; RCS, SC, 0.1 mg/eye)?
The value was 2320 µg·days/g.

What about the “Mean AUC0-∞ after 0.10 mg dose versus 0.03 mg dose” value ([3]; RCS, SC, dose ratio 3.33) of the same molecule?
Its value is roughly 7 fold.

And the “Mean Cmax after 0.10 mg dose versus 0.03 mg dose” value ([3]; RCS, SC, dose ratio 3.33)?
Its value is “approximately 6 fold”.

And the “RCS (dose depot) level higher than retina” value [3, 11]?
The value was 1 to 2 orders of magnitude.

And the “Retina level higher than vitreous humor” value [3, 11]?
The value was 3 to 4 orders of magnitude.

What about the Aqueous humor concentration [3, 12] of the same molecule?
Its Aqueous humor concentration is less than 1 ng/mL.

What about the Plasma concentration [3, 12] of the same molecule?
The Plasma concentration was less than 0.15 ng/mL.

And the “AUC(0-t)” value ([3]; retina, SC, 0.03 mg/eye)?
Its value is 17.3 µg·days/g.

And the “AUC(0-t)” value ([3]; retina, SC, 0.1 mg/eye)?
Its value is 28.1 µg·days/g.

And the concentration at 182 day [4]?
The concentration at 182 day was 199000 ng/g.
